Measured values published in patent US10647680B2, “Urea compound, preparation method therefor and medical use thereof” (Ancureall Pharmaceutical (Shanghai) Co., Ltd., priority 2016, dated 2020).

Experiments:
[1] = Stability test: high temperature test (60° C.); format: physicochemical; details: exposed at 60° C. for 10 days, HPLC
Description: The test samples were placed into an integrated drug stability test chamber (YSEI) in an exposed way at 60° C. for 10 days. Samples were taken on the 5th and 10th days and tested according to the drug stability test indices.
(§1) An appropriate amount of test samples was taken and dissolved in acetonitrile-water (1:1), and quantitatively diluted to a solution of about 0.3 mg/ml. 20 ul of solution was injected into a liquid chromatograph (Agilent 1260 Infinity), the chromatogram was then recorded and calculated according to the percentage area method. The mobile phase was a phosphate buffer and acetonitrile aqueous solution, and then a gradient elution was carried out.

[2] = tested on: MV4-11 cell Bab/c nude mouse tumor model; experiment: In vivo tumor growth inhibition experiment; details: for Tumor Inhibition Rate (%): Dose 2.5 mg/kg
Description: Xenotransplantation in immunodeficient mice is an effective model for testing in vivo antitumor activity of compounds in animals. Bab/c immunodeficient mice are one of the most commonly used tumor cell xenografts. […] Log-phase MV4-11 cells were collected in a 50 ml of centrifuge tube (Corning), centrifuged at 1,700 rpm for 3 minutes, and the supernatant was discarded. Cells were suspended in a 50 ml 1×RPMI 1640 serum-free medium, and centrifuged, the supernatant was discarded and resuspension was performed. The cells were counted (Countess® Automated Cell Counting Apparatus, Invitrogen), prepared into […], placed on ice, and inoculated subcutaneously with 10×10^6 (0.2 ml) to the right back of 6-8-week female Bab/c nude mice (about 20 g in weight) (purchased from Shanghai Sippr-BK Experimental Animal Co., Ltd., Animal Center of Shanghai University of Traditional Chinese Medicine, approved by Ethical Committee of Shanghai University of Traditional Chinese Medicine). When the tumor grew to a size of 100-200 mm^3, animals were randomly grouped and earmarked and weighed. The treatment group consisted of 3 to 6 nude mice in each group. Drugs were prepared into different concentrations of milky suspension with a solvent PTP solution (30% polyethylene glycol 400, 0.5% Tween-80, 2.5% propylene glycol). Animals were given by oral gavage continuously at a concentration of 0.1 ml/10 g body weight, with a dose range of 0.1-200 mg/kg (the purity of the test compound of the present invention was 99% or more, and the proportion of single impurity was not more than 0.1%). In the control group, 3 to 6 nude mice in each group were given the same volume (0.1 ml/10 g body weight) of solvent PTP solution, and the tumors were measured 3 to 4 times per week. When the average tumor volume in the control group reached 1500 mm^3, or on the 28th day of administration, the experiment ended, then the tumor was weighed and subjected to molecular pathology assay.
The tumor volume was calculated as V=½a×b^2, where a is the length and b is the width. The relative tumor volume (RTV) was calculated based on the measured results and the formula was RTV=Vt/V0, where V0 is the measured tumor volume when administered in divided cages (i.e., do), and Vt is the tumor volume at each measurement.

[3] = Stability test: high humidity test (90%); format: physicochemical; details: 25° C., relative humidity 90%±5%, 10 days, HPLC
Description: The test samples were placed into an integrated drug stability test chamber (YSEI) in an exposed way at 25° C. and relative humidity of 90%±5% for 10 days. Samples were taken on the 5th and 10th days and tested according to the drug stability test indices.
as §1

[4] = Stability test: intense light test (4500LX); format: physicochemical; details: 4500LX±500LX light for 10 days, HPLC
Description: The test samples were placed into an integrated drug stability test chamber (YSEI) in an exposed way under 4500LX±500LX light for 10 days. Samples were taken on the 5th and 10th days and tested according to the drug stability test indices.
as §1

Solubility test = format: physicochemical; details: in water at 25° C.±2° C.
Outline: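 Fine powder added to water at 25° C.±2° C., shaken vigorously 30 s every 5 min for 30 min; dissolution judged by absence of visible particles. Classed by water volume per 1 g: 1-10 ml readily soluble, 10-30 soluble, 30-100 slightly, 100-1,000 sparingly, not dissolved in 10,000 ml insoluble.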

[5] = Stability in rat hepatocytes; format: in vitro ADME
Description: The stability experiment on rat hepatocytes was performed using compound 77 of the present invention as a representative example.
Procedure: The rat hepatocyte William's Medium E mixed reaction solution (2*10^6 cells/mL, 25 BD Gentest) was placed in a carbon dioxide incubator, and a certain volume of test substance or reference substance was added to the reaction system to initiate the reaction. In the final reaction system, the concentrations of the test substance or positive control testosterone were both 1 uM. Samples were taken at 0, 5, 15, 30, 45, 60, and 120 min after the reaction to a new centrifuge tube (3 portions in parallel at each time point), and 3-fold volume of ice methanol solution containing internal standard was added immediately to terminate the reactions, then after centrifugation for 5 min at 15,000 rpm to precipitate the protein, 100 μL of the supernatant was fetched to an autosampler vial for LC-MS/MS analysis (Waters Corp. ACQUITY UPLC, USA Applied Biosystems Inc. mass spectrometer API 400). The ratio of mean peak area of compound 77 to the mean peak area of internal standard at each time point was calculated, and the percentage of this ratio to that at time point 0 was calculated, and then change in this percentage was used to indicate the metabolic stability of the compound 77. […]

SMILES | High temperature (60° C.) [1] | Tumor Inhibition Rate (%) ([2]; Day 6) | Tumor Inhibition Rate (%) ([2]; Day 10) | Tumor Inhibition Rate (%) ([2]; Day 15) | Tumor Inhibition Rate (%) ([2]; Day 20) | High Humidity (90%) [3] | Lighting (4500 LX) [4] | Solubility (Solubility test; listed as 89 Free base) | tumor outcome ([2]; drug dose 2.5 mg/kg, 15th day of administration) | effect on body weight of nude mice ([2]; drug dose 2.5 mg/kg, compared with the solvent control group) | half-life at 1 uM [5] [h] | Solubility (Solubility test; listed as 77 Free base)
CC(C)(C)c1cc(NC(=O)Nc2ccc(-n3cnc4cc(OCCN5CCOCC5)ccc43)cc2)[nH]n1 [Compound 89, 1-(5-tert-butyl-2H-pyrazol-3-yl)-3-{4-[5-(2-morpholin-4-yl-ethoxyl)-benzimidazol-1-yl]-phenyl}-urea] | stable | 60.7 | 79.4 | 84.7 | 87.2 | stable | stable | insoluble (“nearly insoluble or insoluble” means that 1 g of the test sample could not be completely dissolved in 10,000 ml of water) |  |  |  | 
COCCOc1ccc2c(c1)ncn2-c1ccc(NC(=O)Nc2cc(C(C)(C)C)n[nH]2)cc1 [Compound 77, 1-(5-tert-butyl-2H-pyrazol-3-yl)-3-{4-[5-(2-methoxyl-ethoxyl)-benzimidazol-1-yl]-phenyl}-urea] |  | 79.2 | 93.2 | 100 | 100 |  |  |  | tumor disappears completely | no significant effect | > 2 | insoluble (“nearly insoluble or insoluble” means that 1 g of the test sample could not be completely dissolved in 10,000 ml of water)
